“And” between values parts separate entries of the source, which are not always exact repeats. Equal values may be shown once.
How the values were obtained:
[1] = tested on: CHO cells expressing TRU-016; assay: Growth and viability of CHO cells expressing TRU-016 cultured with carbohydrate modifier; assay type: cell-based, Chinese hamster; conditions: castanospermine up to 1000 μM, up to 144 hours
Method: For shake flask runs, log phase host cells were seeded in shake flasks at 100,000 cells/ml with carbohydrate modifier at the concentration to be tested, and optionally with methotrexate (MTX) @ 50 nM.
Cells were seeded at 3×10^6/mL in 1350 mL of Ex-Cell 302 culture media (SATC Biosciences; with added non-essential amino acids, pyrucate, L-glutamine, pen/strep, HT Supplement and insulin, all from Invitrogen) at t=0 and brought to 5 L total volume at T>=72 hours. The cells were incubated at 37° C. and 5% carbon dioxide and monitored for growth and viability daily starting at day 6-7. Supernatants were typically harvested at day 10-12 when cell viability dropped below 60%.
Na-Azide was added to 0.02%, cells were removed by centrifugation and supernatant was filter sterilized through a 0.22 uM filter. Some assays described in other examples herein were performed on the supernatants as indicated, while other assays were performed on material that underwent further protein A purification. […] Cells were incubated at 37° C. and 5% carbon dioxide and monitored daily for growth and viability. […]

[2] = tested on: CHO-K1 cells transfected with TRU-016; assay: Effect of castanospermine on CHO-K1 TRU-016 production, shake flasks; assay type: cell-based, Chinese hamster; conditions: for Average TRU-016 Produced (μg/mL) ± SD: duplicate flasks; for Viability at Harvest (%): harvest day 10, listed as CS
Method: Prior to initiation of the experiments, CHO-K1 cells transfected with TRU-016 (CAS029f053) were grown in vented shake flasks in CD-CHO chemically-defined media (GIBCO-Invitrogen) supplemented with 25 uM methionine sulfoximine (MSX) at 37° C. and 5% carbon dioxide in a humidified incubator. Shaker speed was set at 125 RPM. A 400 mM stock concentration of castanospermine (Alexis Biochemicals) was prepared by dilution of the CS in sterile, distilled/deionized water (MediaTech) followed by filtration through a 13 mm Acrodisc® with a 0.2 μm HT Tuffryn membrane (Pall Corporation). Stock solution was aliquoted into sterile, O-ringed, 0.5 mL microcentrifuge tubes (Fisherbrand, Fisher Scientific) and frozen at −20° C. Approximately 1 hour prior to initiation of experiments, needed aliquots were thawed at room temperature and the contents of each vial mixed well by vortexing.
For the experiment, cells in log phase growth were seeded in the above medium into a volume of 60 mL in 250 mL shaker flasks at a density of 220,000 cells/mL and CS added at the concentration to be tested. Final CS concentrations of 800 μM, 400 μM, 200 μM, 100 μM, 50 μM, 25 μM and 0 μM were each tested in duplicate flasks. All shake flasks were incubated on a shaker platform set at 125 RPM at 37° C. and 5% carbon dioxide in a humidified incubator. Cultures were monitored at least every other day for viable cell density and overall cell viability.
Cultures were harvested on day 10 when overall cell viability was 49-62%. Cells and cellular debris were removed by centrifugation in a Sorvall Super T21 at 3000 rpm for 20 minutes after which the supernatant was sterile filtered through a Millipore Steriflip unit with a 0.22 μm Millipore Express Plus membrane and stored at 4° C. until purified.

In the case of `O[C@H]1[C@H](O)[C@@H](O)CN2CC[C@H](O)[C@H]12` [castanospermine], the cell counts [1] is reported as “did not affect”, the percent cell viability [1] is reported as “did not affect” and the “CS concentration at which the maximal suppressive effect on TRU-016 production was reached” value ([2]; CHO-K1) is reported as 200 µM. For the same compound, the “Average ICA (10^6 cells * days/mL) ± SD” value ([2]; CS 25 μM) was 40.8 ± 0.4 10^6 cells * days/mL, the “Average Specific Productivity (pg/cell/day) ± SD” value ([2]; CS 25 μM) was 10.29 ± 0.18 pg/cell/day and the “Average TRU-016 Produced as a % of Control ± SD” value ([2]; CS 25 μM) was 96.7 ± 2.6%. For the same compound, the “Average TRU-016 Produced (μg/mL) ± SD” value ([2]; CS 25 μM) was 419.36 ± 11.1 µg/mL, the “Viability at Harvest (%)” value ([2]; CS 25 μM) was 57.7% and 53.0% and the “Average ICA (10^6 cells * days/mL) ± SD” value ([2]; CS 50 μM) was 41.6 ± 0.9 10^6 cells * days/mL. The “Average Specific Productivity (pg/cell/day) ± SD” value ([2]; CS 50 μM) was 10.18 ± 0.45 pg/cell/day, the “Average TRU-016 Produced as a % of Control ± SD” value ([2]; CS 50 μM) was 97.5 ± 6.4% and the “Average TRU-016 Produced (μg/mL) ± SD” value ([2]; CS 50 μM) was 422.84 ± 27.8 µg/mL. The “Viability at Harvest (%)” value ([2]; CS 50 μM) was 61.3%, the “Average ICA (10^6 cells * days/mL) ± SD” value ([2]; CS 100 μM) was 39.0 ± 0.4 10^6 cells * days/mL and the “Average Specific Productivity (pg/cell/day) ± SD” value ([2]; CS 100 μM) was 10.48 ± 0.07 pg/cell/day. For the same compound, the “Average TRU-016 Produced as a % of Control ± SD” value ([2]; CS 100 μM) was 94.3 ± 1.6%, the “Average TRU-016 Produced (μg/mL) ± SD” value ([2]; CS 100 μM) was 408.60 ± 6.9 µg/mL and the “Viability at Harvest (%)” value ([2]; CS 100 μM) was 61.2% and 55.1%. The “Average ICA (10^6 cells * days/mL) ± SD” value ([2]; CS 200 μM) was 40.1 ± 2.3 10^6 cells * days/mL, the “Average Specific Productivity (pg/cell/day) ± SD” value ([2]; CS 200 μM) was 10.04 ± 0.69 pg/cell/day and the “Average TRU-016 Produced as a % of Control ± SD” value ([2]; CS 200 μM) was 92.7 ± 1.2%. For the same compound, the “Average TRU-016 Produced (μg/mL) ± SD” value ([2]; CS 200 μM) was 401.93 ± 5.0 µg/mL, the “Viability at Harvest (%)” value ([2]; CS 200 μM) was 61.8% and 56.4% and the “Average ICA (10^6 cells * days/mL) ± SD” value ([2]; CS 400 μM) was 37.6 ± 0.3 10^6 cells * days/mL. For the same compound, the “Average Specific Productivity (pg/cell/day) ± SD” value ([2]; CS 400 μM) was 10.68 ± 0.28 pg/cell/day, the “Average TRU-016 Produced as a % of Control ± SD” value ([2]; CS 400 μM) was 92.6 ± 3.1% and the “Average TRU-016 Produced (μg/mL) ± SD” value ([2]; CS 400 μM) was 401.22 ± 13.3 µg/mL. For the same compound, the “Viability at Harvest (%)” value ([2]; CS 400 μM) was 56.1% and 62.4%, the “Average ICA (10^6 cells * days/mL) ± SD” value ([2]; CS 800 μM) was 37.6 ± 1.0 10^6 cells * days/mL and the “Average Specific Productivity (pg/cell/day) ± SD” value ([2]; CS 800 μM) was 10.68 ± 0.40 pg/cell/day. The “Average TRU-016 Produced as a % of Control ± SD” value ([2]; CS 800 μM) was 92.5 ± 1.0%, the “Average TRU-016 Produced (μg/mL) ± SD” value ([2]; CS 800 μM) was 401.14 ± 4.1 µg/mL and the “Viability at Harvest (%)” value ([2]; CS 800 μM) was 58.1% and 59.7%. The “average specific productivity of the cells” value ([2]; CS 25-800 μM) was “no significant effect”, the “overall cell viability or growth (integral cell area)” value ([2]; CS 25-800 μM) was “did not appear to significantly affect” and the “decrease in production of TRU-016 relative to control” value ([2]; CS 25-800 μM, even at the highest concentration of 800 μM) was at most 7.5%.
